Results on 22 molecules are retold here after patent publication US12065436B2, “Cardiac sarcomere inhibitors” (Cytokinetics, Inc., priority 2018, dated 2024).

Each structure is given as a SMILES string.

The assay has as its target bovine cardiac myofibrils (full-length cardiac myosin ATPase in the native sarcomere) (Bos taurus (Bovine), UniProt Q9BE39). The experiment in a line: Skinned bovine cardiac myofibril ATPase assay (PK/LDH-coupled). The format is biochemical. Particulars: Ca2+ activating to 75% of maximal rate; for CDMF75 IC15: concentration giving 15% inhibition; for IC50: read-out: CDMF75 IC50. Put shortly: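 Triton-skinned bovine left-ventricle myofibrils (1 mg/mL) in PM 12 buffer (12 mM PIPES, 2 mM MgCl2, pH 6.8) with 50 μM ATP, 0.6 mM EGTA and CaCl2 set for 50% or 75% activation. Steady-state ATPase inhibition followed by PK/LDH-coupled NADH oxidation at 340 nm.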

Chain of bovine cardiac myofibrils (full-length cardiac myosin ATPase in the native sarcomere) (Q9BE39 whole entry): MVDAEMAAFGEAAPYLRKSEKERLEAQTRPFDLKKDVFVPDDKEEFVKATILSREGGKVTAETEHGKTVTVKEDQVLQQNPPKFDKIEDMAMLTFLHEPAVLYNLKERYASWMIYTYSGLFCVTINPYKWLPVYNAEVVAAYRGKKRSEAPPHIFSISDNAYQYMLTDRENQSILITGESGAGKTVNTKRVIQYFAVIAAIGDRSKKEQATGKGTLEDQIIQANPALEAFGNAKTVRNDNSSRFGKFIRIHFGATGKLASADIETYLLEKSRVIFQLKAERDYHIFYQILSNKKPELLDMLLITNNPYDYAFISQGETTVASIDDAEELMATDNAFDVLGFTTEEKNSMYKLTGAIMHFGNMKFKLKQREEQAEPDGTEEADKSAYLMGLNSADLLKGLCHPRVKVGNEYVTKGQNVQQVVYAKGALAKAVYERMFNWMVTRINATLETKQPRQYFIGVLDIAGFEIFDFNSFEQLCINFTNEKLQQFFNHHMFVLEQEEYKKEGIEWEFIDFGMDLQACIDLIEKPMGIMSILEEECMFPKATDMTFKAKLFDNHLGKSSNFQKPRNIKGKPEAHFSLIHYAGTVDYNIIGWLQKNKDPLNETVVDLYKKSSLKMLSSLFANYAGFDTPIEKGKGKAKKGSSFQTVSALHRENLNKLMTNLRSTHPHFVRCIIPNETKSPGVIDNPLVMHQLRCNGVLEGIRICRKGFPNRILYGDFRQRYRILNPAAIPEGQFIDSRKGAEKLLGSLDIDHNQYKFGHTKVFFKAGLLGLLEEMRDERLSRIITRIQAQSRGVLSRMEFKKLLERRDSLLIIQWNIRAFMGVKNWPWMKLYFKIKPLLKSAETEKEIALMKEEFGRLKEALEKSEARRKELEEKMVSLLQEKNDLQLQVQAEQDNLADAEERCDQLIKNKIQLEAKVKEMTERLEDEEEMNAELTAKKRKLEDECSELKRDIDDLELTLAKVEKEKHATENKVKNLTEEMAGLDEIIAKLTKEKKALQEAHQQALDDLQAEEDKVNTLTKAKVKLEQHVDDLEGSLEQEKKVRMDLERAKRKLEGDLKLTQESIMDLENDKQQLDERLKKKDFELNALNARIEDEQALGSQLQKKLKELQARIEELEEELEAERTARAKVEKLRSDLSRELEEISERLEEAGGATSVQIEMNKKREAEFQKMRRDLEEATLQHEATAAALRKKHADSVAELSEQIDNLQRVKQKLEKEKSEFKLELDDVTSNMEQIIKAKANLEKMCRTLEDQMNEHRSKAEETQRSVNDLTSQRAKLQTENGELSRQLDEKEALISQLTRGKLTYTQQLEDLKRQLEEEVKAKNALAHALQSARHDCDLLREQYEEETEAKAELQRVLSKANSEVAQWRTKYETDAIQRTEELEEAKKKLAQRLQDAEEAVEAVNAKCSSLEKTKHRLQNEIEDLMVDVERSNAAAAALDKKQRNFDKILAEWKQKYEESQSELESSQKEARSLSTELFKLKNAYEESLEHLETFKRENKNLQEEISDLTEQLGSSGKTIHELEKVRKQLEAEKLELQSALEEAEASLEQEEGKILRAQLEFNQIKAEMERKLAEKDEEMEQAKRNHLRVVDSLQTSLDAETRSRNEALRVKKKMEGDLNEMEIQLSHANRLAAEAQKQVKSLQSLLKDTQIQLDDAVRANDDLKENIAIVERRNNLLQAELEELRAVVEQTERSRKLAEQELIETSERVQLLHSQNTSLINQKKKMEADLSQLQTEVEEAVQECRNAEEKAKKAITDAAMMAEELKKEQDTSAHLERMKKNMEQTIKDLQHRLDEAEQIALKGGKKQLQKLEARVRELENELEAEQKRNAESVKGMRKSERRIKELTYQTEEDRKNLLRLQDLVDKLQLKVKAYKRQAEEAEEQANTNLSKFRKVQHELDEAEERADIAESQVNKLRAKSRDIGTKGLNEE
Chain of bovine cardiac myofibrils (full-length cardiac myosin ATPase in the native sarcomere) (P85100 whole entry partner): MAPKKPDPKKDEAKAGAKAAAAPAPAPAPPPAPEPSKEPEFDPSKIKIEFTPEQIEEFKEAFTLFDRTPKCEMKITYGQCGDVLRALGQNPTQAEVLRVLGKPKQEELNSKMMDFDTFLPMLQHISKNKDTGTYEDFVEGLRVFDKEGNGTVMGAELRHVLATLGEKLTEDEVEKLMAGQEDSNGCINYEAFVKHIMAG
Chain of bovine cardiac myofibrils (full-length cardiac myosin ATPase in the native sarcomere) (Q3SZE5 whole entry partner): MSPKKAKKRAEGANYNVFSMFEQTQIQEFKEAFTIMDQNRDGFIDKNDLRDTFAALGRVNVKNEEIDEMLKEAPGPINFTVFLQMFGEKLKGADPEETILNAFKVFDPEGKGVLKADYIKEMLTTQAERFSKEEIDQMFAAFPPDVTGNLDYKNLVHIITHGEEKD

In the case of `COCCn1cc(C(=O)N[C@@H]2CCc3cc(-c4noc(C5CCC5)n4)ccc32)cn1` [Compound 513, (R)-N-(5-(5-cyclobutyl-1,2,4-oxadiazol-3-yl)-2,3-dihydro-1H-inden-1-yl)-1-(2-methoxyethyl)-1H-pyrazole-4-carboxamide], the “CDMF75 IC15” value turned out to be 2.2 µM and the IC50 came to 10.9 µM. Take `CC(=O)O[C@@H](C)c1nc(-c2ccc3c(c2)CCC3NC(=O)c2cn(C)nc2C)no1` (stereo partly drawn) [Compound 77, (1S)-1-(3-(1-(1,3-dimethyl-1H-pyrazole-4-carboxamido)-2,3-dihydro-1H-inden-5-yl)-1,2,4-oxadiazol-5-yl)ethyl acetate]: the “CDMF75 IC15” value amounted to 4.9 µM and the IC50 is 26 µM. The matching figures for `CC(C)c1nc(-c2ccc3c(c2)CC[C@H]3NC(=O)c2cnn(C)c2)no1` [Compound 394, (R)-N-(5-(5-isopropyl-1,2,4-oxadiazol-3-yl)-2,3-dihydro-1H-inden-1-yl)-1-methyl-1H-pyrazole-4-carboxamide]: 1.2 µM and 4.1 µM.

For `Cc1cc(-c2ccc3c(c2)CC[C@H]3NC(=O)c2ccnn2C)ncn1` [Compound 381, (R)-1-methyl-N-(5-(6-methylpyrimidin-4-yl)-2,3-dihydro-1H-inden-1-yl)-1H-pyrazole-5-carboxamide], the “CDMF75 IC15” value was 39.2 µM and the IC50 was more than 39.2 µM. As for `Cc1cc(C(=O)NC2CCc3cc(-c4cnc(C)o4)ccc32)ccn1` (stereo not shown) [Compound 134, 2-methyl-N-(5-(2-methyloxazol-5-yl)-2,3-dihydro-1H-inden-1-yl)isonicotinamide], the “CDMF75 IC15” value was 39.2 µM and the IC50 is more than 39.2 µM. For the molecule `CC(C)NC(=O)NC1CCc2cc(-c3noc(C(F)F)n3)ccc21` (stereo not shown) [Compound 14, 1-(5-(5-(difluoromethyl)-1,2,4-oxadiazol-3-yl)-2,3-dihydro-1H-inden-1-yl)-3-isopropylurea], the “CDMF75 IC15” value amounted to 39.2 µM and the IC50 was more than 39.2 µM. Taken in the same sequence, the figures for `Cc1cc(C(=O)NC2CCc3cc(-c4nnn(C)n4)ccc32)ccn1` (stereo not shown) [Compound 148, 2-methyl-N-(5-(2-methyl-2H-tetrazol-5-yl)-2,3-dihydro-1H-inden-1-yl)isonicotinamide] were 2.9 µM and 13.5 µM. As to `CCc1nc(-c2ccc3c(c2)CCC3C(=O)Nc2cnn(C)c2)no1` (stereo not shown) [Compound 482, 5-(5-ethyl-1,2,4-oxadiazol-3-yl)-N-(1-methyl-1H-pyrazol-4-yl)-2,3-dihydro-1H-indene-1-carboxamide], the “CDMF75 IC15” value was 3.9 µM. Take `CCc1nc(-c2ccc3c(c2)CC[C@H]3NC(=O)c2cnn(CC(C)(C)O)c2)no1` [Compound 476, (R)-N-(5-(5-ethyl-1,2,4-oxadiazol-3-yl)-2,3-dihydro-1H-inden-1-yl)-1-(2-hydroxy-2-methylpropyl)-1H-pyrazole-4-carboxamide]: the “CDMF75 IC15” value turned out to be 4.2 µM and the concentration for half-maximal inhibition (IC50) is 19.5 µM. `CCc1nc(-c2ccc3c(c2)CC[C@H]3NC(=O)OCC(C)(C)OC)no1` [Compound 359, 2-methoxy-2-methylpropyl (R)-(5-(5-ethyl-1,2,4-oxadiazol-3-yl)-2,3-dihydro-1H-inden-1-yl)carbamate]: the “CDMF75 IC15” value is 2.3 µM and the 50% inhibitory concentration (IC50) was 9.5 µM. Taken in the same sequence, the figures for `Cc1noc(-c2ccc3c(c2)CC[C@H]3NC(=O)c2nnn(C)n2)n1` [Compound 203, (R)-2-methyl-N-(5-(3-methyl-1,2,4-oxadiazol-5-yl)-2,3-dihydro-1H-inden-1-yl)-2H-tetrazole-5-carboxamide] were 1.0 µM and 3.6 µM. As to `[2H]C([2H])([2H])c1nc(-c2ccc3c(c2)CC[C@H]3NC(=O)c2cnn(C)c2)no1` [Compound 244, (R)-1-methyl-N-(5-(5-(methyl-d3)-1,2,4-oxadiazol-3-yl)-2,3-dihydro-1H-inden-1-yl)-1H-pyrazole-4-carboxamide], the “CDMF75 IC15” value was 1.6 µM and the IC50 was 5.4 µM. Taken in the same sequence, the figures for `CCc1nc(-c2ccc3c(c2)CC[C@H]3NC(=O)c2cnn(CCOC)c2C)no1` [Compound 574, (R)-N-(5-(5-ethyl-1,2,4-oxadiazol-3-yl)-2,3-dihydro-1H-inden-1-yl)-1-(2-methoxyethyl)-5-methyl-1H-pyrazole-4-carboxamide] were 1.0 µM and 4.2 µM. Consider `CCc1nc(-c2ccc3c(c2)CC[C@H]3NC(=O)c2cc(C)ncc2F)no1` [Compound 556, (R)-N-(5-(5-ethyl-1,2,4-oxadiazol-3-yl)-2,3-dihydro-1H-inden-1-yl)-5-fluoro-2-methylisonicotinamide], for which the “CDMF75 IC15” value came to 1.4 µM and the IC50 came to 7.6 µM.

As to `Cc1nn(C)cc1C(=O)N[C@@H]1CCc2cc(-c3noc(C(F)F)n3)ccc21` [Compound 90, (R)-N-(5-(5-(difluoromethyl)-1,2,4-oxadiazol-3-yl)-2,3-dihydro-1H-inden-1-yl)-1,3-dimethyl-1H-pyrazole-4-carboxamide], the “CDMF75 IC15” value was 0.4 µM and the IC50 was 1.9 µM.

Consider `[2H]C([2H])([2H])c1nc(-c2ccc3c(c2)CC[C@H]3NC(=O)c2ocnc2C)no1` [Compound 251, (R)-4-methyl-N-(5-(5-(methyl-d3)-1,2,4-oxadiazol-3-yl)-2,3-dihydro-1H-inden-1-yl)oxazole-5-carboxamide], for which the “CDMF75 IC15” value amounted to 0.5 µM and the IC50 is 1.5 µM. Take `CCc1nc(-c2ccc3c(c2)CC[C@H]3NC(=O)c2ccon2)no1` [Compound 586, (R)-N-(5-(5-ethyl-1,2,4-oxadiazol-3-yl)-2,3-dihydro-1H-inden-1-yl)isoxazole-3-carboxamide]: the “CDMF75 IC15” value came to 0.5 µM and the IC50 stood at 2.3 µM.

In the case of `CCc1nc(-c2ccc3c(c2)CC[C@H]3NC(=O)c2ncco2)no1` [Compound 593, (R)-N-(5-(5-ethyl-1,2,4-oxadiazol-3-yl)-2,3-dihydro-1H-inden-1-yl)oxazole-2-carboxamide], the “CDMF75 IC15” value turned out to be 0.5 µM and the IC50 worked out at 2.1 µM. In the case of `Cc1nc(-c2ccc3c(c2)CC[C@H]3NC(=O)c2ccnn2C)no1` [Compound 107, (R)-1-methyl-N-(5-(5-methyl-1,2,4-oxadiazol-3-yl)-2,3-dihydro-1H-inden-1-yl)-1H-pyrazole-5-carboxamide], the “CDMF75 IC15” value is 0.5 µM and the IC50 is 1.7 µM. The matching figures for `O=C(N[C@@H]1COc2cc(-c3noc(C(F)F)n3)ccc21)c1cc(CO)ccn1` [Compound 707, (S)-N-(6-(5-(difluoromethyl)-1,2,4-oxadiazol-3-yl)-2,3-dihydrobenzofuran-3-yl)-4-(hydroxymethyl)picolinamide]: 0.9 µM and 3.6 µM. With `Cc1ncoc1C(=O)NC1CCc2cc(-c3noc(C(F)F)n3)ccc21` (stereo not shown) [Compound 12, N-(5-(5-(difluoromethyl)-1,2,4-oxadiazol-3-yl)-2,3-dihydro-1H-inden-1-yl)-4-methyloxazole-5-carboxamide], the “CDMF75 IC15” value stood at 0.6 µM and the half-maximal inhibitory concentration (IC50) came to 2 µM.

`[2H]C([2H])([2H])C(=O)N[C@@H]1COc2cc(-c3noc(CC)n3)ccc21` [Compound 445, (S)-N-(6-(5-ethyl-1,2,4-oxadiazol-3-yl)-2,3-dihydrobenzofuran-3-yl)acetamide-2,2,2-d3]: the “CDMF75 IC15” value amounted to 0.8 µM and the IC50 was 3 µM.
